Active and inactive are the calls of the source. The calls are words filed in the database; no cut-off is given here.
Tests used:
L1210 = assay: Cytotoxicity against mouse L1210 cells after 48 hrs by microculture tetrazolium assay; format: functional, cell-based
[1] = Binding affinity to pBS plasmid 117 base-pair DNA fragment assessed as half life of DNA alkylation by gel shift assay
[2] = (§1) Cytotoxicity against human KB-3-1 cells after 96 hrs by microculture tetrazolium assay; format: functional, cell-based; settings: KB 3-1, 96 h
MC-38 [3] = assay: Antitumor activity against mouse Colon 38 cells xenografted B6D2F1 mouse assessed as inhibition of tumor growth at 4 mg/kg, iv administered twice daily; format: functional
KB 3-1 = assay: as §1; format: functional, cell-based
MC-38 [4] = assay: Antitumor activity against mouse Colon 38 cells xenografted B6D2F1 mouse assessed as inhibition of tumor growth at 2 mg/kg, iv administered twice daily; format: functional
MC-38 [5] = assay: Toxicity in mouse Colon 38 cells xenografted B6D2F1 mouse assessed as inhibition of tumor growth at 4 mg/kg, iv administered twice daily; format: functional, organism-based; parameters: dose 4 mg/kg
MC-38 [6] = assay: Antitumor activity against mouse Colon 38 cells xenografted B6D2F1 mouse assessed as tumor free state at 4 mg/kg, iv administered twice daily on day 90 post drug dose; format: functional, organism-based; parameters: dose 4 mg/kg
[7] = Mus musculus, L1210, 48 h, read-out: IC50

Row | Structure (SMILES) | IC50 (L1210; [7]) [nM] | T1/2 [1] [h] | IC50 [2] [nM] | other results
1 | COc1cc2c(c3c1c(=O)c1cc4ccccc4cc1n3C)[C@@H](O)[C@@H](OC(C)=O)C(C)(C)O2 (racemic) | 620 | 0.0833 | 160 | 
2 | COc1ccc(/C=C/C(=O)O[C@@H]2[C@H](O)c3c(cc(OC)c4c(=O)c5cc6ccccc6cc5n(C)c34)OC2(C)C)cc1 (racemic) | 130 |  | 30 | 
3 | COc1cc2c(c3c1c(=O)c1cc4ccccc4cc1n3C)[C@@H](O)[C@@H](OC(=O)/C=C/c1ccc(C(F)(F)F)cc1)C(C)(C)O2 (racemic) | 90 |  | 20 | 
4 | COc1cc2c(c3c1c(=O)c1cc4ccccc4cc1n3C)[C@@H](O)[C@@H](OC(=O)/C=C/c1cccc(Br)c1)C(C)(C)O2 (racemic) | 80 |  | 20 | 
5 | COc1cc2c(c3c1c(=O)c1cc4ccccc4cc1n3C)[C@@H](O)[C@@H](OC(=O)/C=C/c1ccccc1Cl)C(C)(C)O2 (racemic) | 50 |  | 20 | 
6 | COc1cc2c(c3c1c(=O)c1cc4ccccc4cc1n3C)[C@@H](OC(C)=O)[C@@H](OC(=O)/C=C/c1ccc(Cl)c(Cl)c1)C(C)(C)O2 (racemic) | 400 | > 24 | 50 | inhibition in vivo at 4 mg/kg (MC-38 [3]): 84%
7 | COc1ccc(/C=C/C(=O)O[C@@H]2[C@H](O)c3c(cc(OC)c4c(=O)c5cc6ccccc6cc5n(C)c34)OC2(C)C)cc1OC (racemic) | 1100 |  | 80 | 
8 | COc1cc2c(c3c1c(=O)c1cc4ccccc4cc1n3C)[C@@H](OC(C)=O)[C@@H](OC(=O)/C=C/c1cccc(Cl)c1)C(C)(C)O2 (racemic) |  |  |  | IC50 (L1210; l1210): Insoluble; solubility (KB 3-1): Not soluble
9 | COc1ccc(/C=C/C(=O)O[C@@H]2[C@H](OC(C)=O)c3c(cc(OC)c4c(=O)c5cc6ccccc6cc5n(C)c34)OC2(C)C)cc1OC (racemic) | 900 |  | 150 | 
10 | COc1cc2c(c3c1c(=O)c1cc4ccccc4cc1n3C)[C@@H](O)[C@@H](OC(=O)/C=C/c1ccc(Cl)c(Cl)c1)C(C)(C)O2 (racemic) | 35 | 1 | 6 | inhibition in vivo at 2 mg/kg (MC-38 [4]): 90%; Activity (MC-38 [5]): Toxic
11 | COc1cc2c(c3c1c(=O)c1cc4ccccc4cc1n3C)[C@@H](OC(C)=O)[C@@H](OC(=O)/C=C/c1ccc(Cl)cc1)C(C)(C)O2 (racemic) | 500 | 6 | 70 | 
12 | COc1cc2c(c3c1c(=O)c1cc4ccccc4cc1n3C)[C@@H](O)[C@@H](OC(=O)/C=C/c1ccc([N+](=O)[O-])cc1)C(C)(C)O2 (racemic) | 240 |  | 30 | 
13 | COc1cc2c(c3c1c(=O)c1cc4ccccc4cc1n3C)[C@@H](OC(C)=O)[C@@H](OC(=O)/C=C/c1cccc(C(F)(F)F)c1)C(C)(C)O2 (racemic) | 700 |  | 60 | 
14 | COc1cc2c(c3c1c(=O)c1cc4ccccc4cc1n3C)[C@@H](OC(C)=O)[C@@H](OC(=O)/C=C/c1ccccc1Cl)C(C)(C)O2 (racemic) | 600 |  | 90 | 
15 | COc1cc2c(c3c1c(=O)c1cc4ccccc4cc1n3C)[C@@H](OC(C)=O)[C@@H](OC(=O)/C=C/c1ccccc1)C(C)(C)O2 (racemic) | 1100 | 1.5 | 150 | 
16 | COc1cc2c(c3c1c(=O)c1cc4ccccc4cc1n3C)[C@@H](OC(C)=O)[C@@H](OC(=O)/C=C/c1ccc(C(F)(F)F)cc1)C(C)(C)O2 (racemic) | 1500 |  | 300 | 
17 | COc1cc2c(c3c1c(=O)c1cc4ccccc4cc1n3C)[C@@H](O)[C@@H](OC(=O)/C=C/c1ccccc1)C(C)(C)O2 (racemic) | 120 | 0.333 | 30 | 
18 | COc1cc2c(c3c1c(=O)c1cc4ccccc4cc1n3C)[C@@H](OC(C)=O)[C@@H](OC(=O)/C=C/c1cccc(Br)c1)C(C)(C)O2 (racemic) | 600 |  | 120 | 
19 | COc1cc2c(c3c1c(=O)c1cc4ccccc4cc1n3C)[C@@H](O)[C@@H](OC(=O)/C=C/c1cccc(Cl)c1)C(C)(C)O2 (racemic) | 60 |  | 20 | 
20 | COc1cc2c(c3c1c(=O)c1cc4ccccc4cc1n3C)[C@@H](O)[C@@H](OC(=O)/C=C/c1cccc(C(F)(F)F)c1)C(C)(C)O2 (racemic) | 100 |  | 15 | 
21 | COc1cc2c(c3c1c(=O)c1cc4ccccc4cc1n3C)[C@@H](OC(C)=O)[C@@H](OC(=O)/C=C/c1ccc(Cl)cc1Cl)C(C)(C)O2 (racemic) | 600 |  | 90 | 
22 | COc1cc2c(c3c1c(=O)c1cc4ccccc4cc1n3C)[C@@H](O)[C@@H](OC(=O)/C=C/c1ccc(Cl)cc1)C(C)(C)O2 (racemic) | 40 | 1 | 8 | 
23 | COc1cc2c(c3c1c(=O)c1cc4ccccc4cc1n3C)[C@@H](OC(C)=O)[C@@H](OC(=O)/C=C/c1ccc([N+](=O)[O-])cc1)C(C)(C)O2 (racemic) | 500 |  | 140 | 
24 | COc1ccc(/C=C/C(=O)O[C@@H]2[C@H](OC(C)=O)c3c(cc(OC)c4c(=O)c5cc6ccccc6cc5n(C)c34)OC2(C)C)cc1 (racemic) | 1200 |  | 240 | 
25 | COc1cc2c(c3c1c(=O)c1cc4ccccc4cc1n3C)[C@@H](O)[C@@H](OC(=O)/C=C/c1ccc(Cl)cc1Cl)C(C)(C)O2 (racemic) | 35 |  | 6 | 
26 | COc1cc2c(c3c1c(=O)c1cc4ccccc4cc1n3C)[C@@H](O)[C@@H](OC(=O)/C=C/c1ccc(Br)cc1)C(C)(C)O2 (racemic) | 50 | 1 | 6 | 
27 | COc1cc2c(c3c1c(=O)c1cc4ccccc4cc1n3C)[C@@H](OC(C)=O)[C@@H](OC(=O)/C=C/c1ccc(Br)cc1)C(C)(C)O2 (racemic) | 700 | 6 | 80 | 
28 | COc1cc2c(c3c1c(=O)c1cc4ccccc4cc1n3C)[C@@H](OC(C)=O)[C@@H](OC(C)=O)C(C)(C)O2 (racemic) | 790 | 0.5 | 100 | Activity (MC-38 [6]): Active; inhibition in vivo at 4 mg/kg (MC-38 [3]): 99%
